According to patent US20170088520A1, “DEUBIQUITINASE INHIBITORS” (PharmAkea, Inc., priority 2014, published 2017):

Columns and labels:
Assay type in all cases: cell-based
[1] = system: PARP cleavage in cells (NCI-H929, Z138, MM.1S, A-375); assay: Analysis of PARP cleavage by Western blotting; details: compound tested at 5 μM; Western blot
Method: (§1) Example B-2: Analysis of Md-1 Expression and PARP Cleavage
(§2) The ability of test compounds to decrease expression of the tumor promoting protein, Mcl-1, and to induce the inactivation/cleavage of the PARP protein is evaluated in cells (NCI-H929, Z138, MM.1S, A-375) by Western blotting. Cells are plated and treated as described in the HA-Ub-VS cell labeling assay (see above). A portion of the cleared lysate (15-50 μl) is run on an SDS-polyacrylamide gel to separate proteins and then transferred to nitrocellulose. After transfer to nitrocellulose, the proteins are detected by probing the blot with anti-Mcl-1 and anti-PARP antibodies followed by secondary antibodies coupled to IRdye 800 and IRdye 680 and visualization and quantitation using a LiCor Odyssey machine. Activity of the test compound is identified as a significant decrease in Mcl-1 expression relative to the vehicle treated cells and to the appearance of a cleaved fragment of PARP relative to the vehicle-treated cells.
(§3) The following compounds were tested in the above assays at 5 μM: […]

[2] = system: Mcl-1 expression in cells (NCI-H929, Z138, MM.1S, A-375); assay: Analysis of Mcl-1 expression by Western blotting; details: compound tested at 5 μM; Western blot
Method: as §1, §2, §3

[3] = molecular target: T1, DUB activity in cells (NCI-H929, Z138, MM.1S, A375) (Homo sapiens, UniProt Q93008); assay: HA-Ubiquitin-Vinylsulfone (HA-Ub-VS) cell labeling assay; details: compound tested at 5 μM; HA-Ub-VS labeling of USP9x in cells
T1 construct: endogenous in cells; host or cells: NCI-H929, Z138, MM.1S, A375
Method: Example B-1: HA-Ubiqutin-Vinylsulfone (HA-Ub-VS) Cell Labeling
Inhibitition of DUB activity is measured in cells (NCI-H929, Z138, MM.1S, A375) using a hemaglutinin-ubiquitin-vinylsulfone (HA-Ub-VS) labeling assay. Briefly, 1-2×10^6 cells are plated in 12-well plates in 1 ml complete growth media and 250 μl of test compound in 0.5% dimethylsulfoxide (or DMSO control) is added to each well. Plates are incubated at 37° C., 5% CO2 for 2-6 hours before cells are harvested into eppendorf tubes, washed once in PBS and resuspended in 100 μl cold lysis buffer (50 mM Tris pH 8, 150 mM NaCl, 0.5% NP-40, 2 mM phenylmethylsulfonyl fluoride and complete protease inhibitor tablet). Resupended cells are frozen on dry ice, then thawed and incubated on ice for 15 minutes. Tubes are centrifuged for 10 minutes at 14,000 rpm at 4° C. and the cleared supernatants transferred to clean tubes. […] The samples are incubated 15-60 min at 37° C. before the addition of SDS gel loading buffer. Proteins are separated by SDS-PAGE, transferred to nitrocellulose and the blot probed with anti-HA antibody and anti-β-actin antibodies. The HA and β-actin antibodies are detected using secondary antibodies coupled to IRdye 800 or IRdye 680 and visualized and quantitated using the LiCor Odyssey machine.
as §3

T1 sequence (Q93008 whole entry): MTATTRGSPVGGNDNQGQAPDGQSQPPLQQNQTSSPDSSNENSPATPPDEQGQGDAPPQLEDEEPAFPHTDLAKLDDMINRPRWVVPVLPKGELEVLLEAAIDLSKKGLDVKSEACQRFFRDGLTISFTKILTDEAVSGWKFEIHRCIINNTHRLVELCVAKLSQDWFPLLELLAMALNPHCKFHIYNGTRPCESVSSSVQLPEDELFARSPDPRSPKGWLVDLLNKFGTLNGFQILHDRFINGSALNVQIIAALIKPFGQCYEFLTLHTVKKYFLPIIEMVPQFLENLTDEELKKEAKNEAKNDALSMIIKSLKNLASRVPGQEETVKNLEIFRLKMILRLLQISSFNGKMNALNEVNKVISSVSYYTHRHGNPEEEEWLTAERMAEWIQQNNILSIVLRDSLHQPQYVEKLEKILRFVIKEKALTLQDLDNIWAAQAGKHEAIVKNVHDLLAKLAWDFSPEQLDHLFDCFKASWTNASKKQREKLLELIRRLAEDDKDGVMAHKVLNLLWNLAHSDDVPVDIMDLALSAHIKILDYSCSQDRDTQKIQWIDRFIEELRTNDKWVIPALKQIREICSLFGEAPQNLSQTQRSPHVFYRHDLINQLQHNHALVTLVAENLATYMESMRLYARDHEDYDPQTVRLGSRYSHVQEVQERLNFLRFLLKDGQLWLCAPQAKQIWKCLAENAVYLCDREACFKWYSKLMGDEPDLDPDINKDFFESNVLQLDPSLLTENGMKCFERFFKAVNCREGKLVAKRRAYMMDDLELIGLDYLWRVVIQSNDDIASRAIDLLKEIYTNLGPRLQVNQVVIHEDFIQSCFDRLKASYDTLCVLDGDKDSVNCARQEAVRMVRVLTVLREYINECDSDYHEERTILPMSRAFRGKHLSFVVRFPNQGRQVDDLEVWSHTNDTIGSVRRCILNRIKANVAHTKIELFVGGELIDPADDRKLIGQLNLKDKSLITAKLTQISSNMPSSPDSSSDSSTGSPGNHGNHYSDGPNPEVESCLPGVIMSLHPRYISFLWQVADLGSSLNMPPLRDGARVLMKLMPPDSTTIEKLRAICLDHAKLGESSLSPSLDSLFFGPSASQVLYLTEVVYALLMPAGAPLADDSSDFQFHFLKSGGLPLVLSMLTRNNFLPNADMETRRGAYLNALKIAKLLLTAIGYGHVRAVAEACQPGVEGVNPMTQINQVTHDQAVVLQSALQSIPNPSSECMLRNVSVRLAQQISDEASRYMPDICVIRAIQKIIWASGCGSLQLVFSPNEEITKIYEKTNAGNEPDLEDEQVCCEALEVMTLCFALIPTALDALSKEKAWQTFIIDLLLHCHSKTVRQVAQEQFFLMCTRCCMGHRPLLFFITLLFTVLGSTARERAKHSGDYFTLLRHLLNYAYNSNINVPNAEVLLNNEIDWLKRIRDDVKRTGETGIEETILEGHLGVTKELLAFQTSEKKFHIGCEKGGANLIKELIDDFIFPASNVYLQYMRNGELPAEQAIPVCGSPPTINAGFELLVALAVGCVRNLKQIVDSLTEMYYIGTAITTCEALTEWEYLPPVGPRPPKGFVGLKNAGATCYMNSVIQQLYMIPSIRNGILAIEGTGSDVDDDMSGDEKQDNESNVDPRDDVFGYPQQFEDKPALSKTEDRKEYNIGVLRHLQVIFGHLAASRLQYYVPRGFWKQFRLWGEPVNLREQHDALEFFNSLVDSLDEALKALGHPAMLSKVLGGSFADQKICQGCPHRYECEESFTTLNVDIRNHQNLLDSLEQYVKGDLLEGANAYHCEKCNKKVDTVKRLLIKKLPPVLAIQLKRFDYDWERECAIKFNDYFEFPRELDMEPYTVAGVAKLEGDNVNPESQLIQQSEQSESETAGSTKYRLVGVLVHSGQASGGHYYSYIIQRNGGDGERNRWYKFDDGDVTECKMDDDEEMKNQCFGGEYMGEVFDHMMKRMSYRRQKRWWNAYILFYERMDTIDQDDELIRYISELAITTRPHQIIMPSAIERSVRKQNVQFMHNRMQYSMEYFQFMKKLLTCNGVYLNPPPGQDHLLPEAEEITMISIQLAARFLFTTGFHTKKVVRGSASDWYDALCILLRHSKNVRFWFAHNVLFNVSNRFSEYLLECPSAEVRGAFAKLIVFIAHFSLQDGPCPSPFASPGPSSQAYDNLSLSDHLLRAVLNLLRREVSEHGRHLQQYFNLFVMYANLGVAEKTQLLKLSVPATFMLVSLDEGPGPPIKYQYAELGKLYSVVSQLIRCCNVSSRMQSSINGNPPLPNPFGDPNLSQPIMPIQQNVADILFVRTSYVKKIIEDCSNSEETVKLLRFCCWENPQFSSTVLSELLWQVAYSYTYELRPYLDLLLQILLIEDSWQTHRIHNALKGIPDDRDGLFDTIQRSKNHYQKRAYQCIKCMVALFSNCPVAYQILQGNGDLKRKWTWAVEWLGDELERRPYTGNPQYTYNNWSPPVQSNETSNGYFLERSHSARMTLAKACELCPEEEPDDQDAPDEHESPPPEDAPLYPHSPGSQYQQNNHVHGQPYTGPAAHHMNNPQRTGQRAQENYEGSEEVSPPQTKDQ

Row | inhibition at 5 µM [3] | Structure (SMILES) | PARP cleavage % Inhibition [1] | inhibition at 5 µM [2]
1 | 50 to 75% | COC(=O)/C=C/c1cccc(/C=C(\C#N)C(=O)NC2(c3ccccc3)CCCC2)n1 [Compound 42, (E)-methyl 3-(6-((E)-2-cyano-3-oxo-3-((1-phenylcyclopentyl)amino)prop-1-en-1-yl)pyridin-2-yl)acrylate] | A (A is ≧75% inhibition) | ≥ 75%
2 | ≥ 75% | N#C/C(=C\c1cccc(C#CCn2cccn2)n1)C(=O)NC1(c2ccccc2)CCCC1 [Compound 43, (E)-3-(6-(3-(1H-pyrazol-1-yl)prop-1-yn-1-yl)pyridin-2-yl)-2-cyano-N-(1-phenylcyclopentyl)acrylamide] | A (A is ≧75% inhibition) | ≥ 75%
3 | 50 to 75% | N#C/C(=C\c1cccc(C#CC2(O)CCCC2)n1)C(=O)NC1(c2ccccc2)CCCC1 [Compound 45] | A (A is ≧75% inhibition) | ≥ 75%
4 | 50 to 75% | N#C/C(=C\c1ncccc1Br)C(=O)NC1(c2ccccc2)CCCC1 [Compound 46, (E)-3-(3-bromopyridin-2-yl)-2-cyano-N-(1-phenylcyclopentyl)acrylamide] | A (A is ≧75% inhibition) | 50 to 75%
5 | 25 to 50% | CCOc1ncc(C(F)(F)F)cc1-c1cccc(/C=C(\C#N)C(=O)NC2(c3ccccc3)CCCC2)n1 [Compound 47, (E)-2-cyano-3-(2′-ethoxy-5′-(trifluoromethyl)-[2,3′-bipyridin]-6-yl)-N-(1-phenylcyclopentyl)acrylamide] | A (A is ≧75% inhibition) | 50 to 75%
6 | 50 to 75% | COC(=O)c1cccc(C2(NC(=O)/C(C#N)=C/c3cccc(Br)n3)CCCC2)c1 [Compound 48, (E)-methyl 3-(1-(3-(6-bromopyridin-2-yl)-2-cyanoacrylamido)cyclopentyl)benzoate] | A (A is ≧75% inhibition) | < 25%
7 | ≥ 75% | CC(C)(C)OC(=O)c1cc(-c2cccc(/C=C(\C#N)C(=O)NC3(c4ccccc4)CCCC3)n2)cnc1Cl [Compound 49] | A (A is ≧75% inhibition) | ≥ 75%
8 | ≥ 75% | N#C/C(=C\c1ncc(Br)cc1Br)C(=O)NC1(c2ccc(C#CCN3CCOCC3)cc2)CCCC1 [Compound 50, (E)-2-cyano-3-(3,5-dibromopyridin-2-yl)-N-(1-(4-(3-morpholinoprop-1-yn-1-yl)phenyl)cyclopentyl)acrylamide] | A (A is ≧75% inhibition) | ≥ 75%
9 | 25 to 50% | N#C/C(=C\c1ncc(Br)cc1Br)C(=O)NC1(c2ccc(-c3ccc(N4CCOCC4)nc3)cc2)CCCC1 [Compound 51, (E)-2-cyano-3-(3,5-dibromopyridin-2-yl)-N-(1-(4-(6-morpholinopyridin-3-yl)phenyl)cyclopentyl)acrylamide] | A (A is ≧75% inhibition) | 25 to 50%
10 | < 25% | CC(C)(C)OC(=O)c1cccc(C2(NC(=O)/C(C#N)=C/c3ncc(Br)cc3Br)CCCC2)c1 [Compound 52, (E)-tert-butyl 3-(1-(2-cyano-3-(3,5-dibromopyridin-2-yl)acrylamido)cyclopentyl)benzoate] | D (D is <25% inhibition) | < 25%
11 | < 25% | COc1ncccc1-c1ccc(C2(NC(=O)/C(C#N)=C/c3ncc(Br)cc3Br)CCCC2)cc1 [Compound 53, (E)-2-cyano-3-(3,5-dibromopyridin-2-yl)-N-(1-(4-(2-methoxypyridin-3-yl)phenyl)cyclopentyl)acrylamide] | A (A is ≧75% inhibition) | 50 to 75%
12 | < 25% | CCOc1ncc(C(F)(F)F)cc1-c1ccc(C2(NC(=O)/C(C#N)=C/c3ncc(Br)cc3Br)CCCC2)cc1 [Compound 54, (E)-2-cyano-3-(3,5-dibromopyridin-2-yl)-N-(1-(4-(2-ethoxy-5-(trifluoromethyl)pyridin-3-yl)phenyl)cyclopentyl)acrylamide] | C (C is 25% to 50% inhibition) | < 25%
13 | 25 to 50% | N#C/C(=C\c1cccc(C#CCN2CCOCC2)n1)C(=O)NC1(c2ccccc2)CCCC1 [Compound 55, (E)-2-cyano-3-(6-(3-morpholinoprop-1-yn-1-yl)pyridin-2-yl)-N-(1-phenylcyclopentyl)acrylamide] | A (A is ≧75% inhibition) | < 25%
14 | 50 to 75% | CC(C)(C)OC(=O)c1cccc(-c2cccc(/C=C(\C#N)C(=O)NC3(c4ccccc4)CCCC3)n2)c1 [Compound 56, (E)-tert-butyl 3-(6-(2-cyano-3-oxo-3-((1-phenylcyclopentyl)amino)prop-1-en-1-yl)pyridin-2-yl)benzoate] | A (A is ≧75% inhibition) | ≥ 75%
15 | ≥ 75% | N#C/C(=C\c1cccc(-c2ccc(N3CCOCC3)nc2)n1)C(=O)NC1(c2ccccc2)CCCC1 [Compound 57, (E)-2-cyano-3-(6′-morpholino-[2,3′-bipyridin]-6-yl)-N-(1-phenylcyclopentyl)acrylamide] | A (A is ≧75% inhibition) | ≥ 75%
16 | ≥ 75% | N#C/C(=C\c1cccc(Br)n1)C(=O)NC1(c2cccc(Br)c2)CCCC1 [Compound 58, (E)-N-(1-(3-bromophenyl)cyclopentyl)-3-(6-bromopyridin-2-yl)-2-cyanoacrylamide] | A (A is ≧75% inhibition) | ≥ 75%
17 | ≥ 75% | N#C/C(=C\c1ncc(Br)cc1Br)C(=O)NC1(c2ccc(-c3cnc4[nH]ccc4c3)cc2)CCCC1 [Compound 59, (E)-N-(1-(4-(1H-pyrrolo[2,3-b]pyridin-5-yl)phenyl)cyclopentyl)-2-cyano-3-(3,5-dibromopyridin-2-yl)acrylamide] | A (A is ≧75% inhibition) | ≥ 75%
18 | 50 to 75% | CCOC(=O)c1cccc(-c2cccc(/C=C(\C#N)C(=O)NC3(c4ccccc4)CCCC3)n2)c1F [Compound 60] | A (A is ≧75% inhibition) | ≥ 75%
19 | < 25% | N#C/C(=C\c1cccc(-c2cnc3[nH]ccc3c2)n1)C(=O)NC1(c2ccccc2)CCCC1 [Compound 61, (E)-3-(6-(1H-pyrrolo[2,3-b]pyridin-5-yl)pyridin-2-yl)-2-cyano-N-(1-phenylcyclopentyl)acrylamide] | B (B is 50% to 75% inhibition) | < 25%
20 | 50 to 75% | Cn1cc(-c2cccc(/C=C(\C#N)C(=O)NC3(c4ccccc4)CCCC3)n2)cn1 [Compound 62, (E)-2-cyano-3-(6-(1-methyl-1H-pyrazol-4-yl)pyridin-2-yl)-N-(1-phenylcyclopentyl)acrylamide] | A (A is ≧75% inhibition) | ≥ 75%
21 | ≥ 75% | C=C(C)c1ccc(C2(NC(=O)/C(C#N)=C/c3ncc(Br)cc3Br)CCCC2)cc1 [Compound 63, (E)-2-cyano-3-(3,5-dibromopyridin-2-yl)-N-(1-(4-(prop-1-en-2-yl)phenyl)cyclopentyl)acrylamide] | A (A is ≧75% inhibition) | ≥ 75%
22 | 50 to 75% | N#C/C(=C\c1cccc(-c2ccc(C(F)(F)F)nc2)n1)C(=O)NC1(c2ccccc2)CCCC1 [Compound 64, (E)-2-cyano-N-(1-phenylcyclopentyl)-3-(6′-(trifluoromethyl)-[2,3′-bipyridin]-6-yl)acrylamide] | A (A is ≧75% inhibition) | ≥ 75%
23 | 25 to 50% | N#C/C(=C\c1cccc(-c2ccc(N3CCCCC3)nc2)n1)C(=O)NC1(c2ccccc2)CCCC1 [Compound 65, (E)-2-cyano-N-(1-phenylcyclopentyl)-3-(6′-(piperidin-1-yl)-[2,3′-bipyridin]-6-yl)acrylamide] | B (B is 50% to 75% inhibition) | < 25%
